Earlier results, collected in US5209933A, “Long acting calcium channel blocker composition” (Syntex (U.S.A.) Inc., priority 1991, dated 1993).
Where two headings read alike, the source gives them in different places.

What was measured:
calcium channel = conditions: result in words
[1] = result in words
[2] = result in words; remark: listed apart in the source

In the case of CCOC(=O)C1=C(C)NC(C)=C(C(=O)OC)C1c1cccc(Cl)c1Cl (stereo not drawn) [felodipine, 4-(2',3'-dichloro)-2,6-dimethyl-1,4-dihydropyridine-3,5-dicarboxylic acid 3-ethyl ester 5-methyl ester], the “calcium channel blocking activity” value (calcium channel) is given as “high degree of calcium channel blocking activity”.

In the case of “4-(3'-nitrophenyl)-2,6-dimethyl-1,4-dihydropyridine-3,5-dicarboxylic acid 3-methyl ester 5-(2-methoxyethyl)ester [nimodipine]”, the “calcium channel blocking activity” value (calcium channel) is listed as “high degree of calcium channel blocking activity”.

For COC(=O)C1=C(C)NC(C)=C(C(=O)OCCN(C)Cc2ccccc2)C1c1cccc([N+](=O)[O-])c1 (stereo not drawn) [nicardipine, 2,6-dimethyl-4-(3'-nitrophenyl)-1,4-dihydropyridine-3,5-dicarboxylic acid-3-β-(N-benzyl-N-methylamino)-ethyl ester 5-methyl ester], the “calcium channel blocking activity” value (calcium channel) is given as “high degree of calcium channel blocking activity”, the first pass metabolism [1] is given as “extensive first pass metabolism” and the anti-ischemic properties [2] is given as “possesses anti-ischemic properties”.

In the case of CCCOCCOC(=O)C1=C(C)NC(C)=C(C(=O)OCCOCCC)C1c1cccc([N+](=O)[O-])c1 [niludipine, 4-(3'-nitrophenyl)-2,6-dimethyl-1,4-dihydropyridine-3,5-dicarboxylic acid di-n-propyloxethyl ester], the “calcium channel blocking activity” value (calcium channel) is listed as “high degree of calcium channel blocking activity”.

For COC(=O)C1=C(C)NC(C)=C(C(=O)OCC(C)C)C1c1ccccc1[N+](=O)[O-] (stereo not drawn) [nisoldipine, 4-(2'-nitrophenyl)-2,6-dimethyl-1,4-dihydropyridine-3,5-dicarboxylic acid 3-methyl ester 5-isobutyl ester], the “calcium channel blocking activity” value (calcium channel) is given as “high degree of calcium channel blocking activity”.

For COC(=O)C1=C(C)NC(C)=C(C(=O)OC(C)C)C1c1cccc([N+](=O)[O-])c1 (stereo not drawn) [isopropyl methyl 1,4-dihydro-2,6-dimethyl 4-(3-nitrophenyl)-3,5-pyridine dicarboxylate], the “calcium channel blocking activity” value (calcium channel) is listed as “high degree of calcium channel blocking activity”.

In the case of CCOC(=O)C1=C(C)NC(C)=C(C(=O)OC)C1c1cccc([N+](=O)[O-])c1 (stereo not drawn) [nitrendipine, 4-(3'-nitrophenyl)-2,6-dimethyl-1,4-dihydropyridine-3,5-dicarboxylic acid 3-ethyl ester 5-methyl ester], the “calcium channel blocking activity” value (calcium channel) is given as “high degree of calcium channel blocking activity”.

For CCOC(=O)C1=C(C)NC(C)=C(C(=O)OCC)C1c1ccccc1C(F)F [2,6-dimethyl-3,5-diethoxycarbonyl-4-(o-difluoromethylphenyl)-1,4-dichydropyridine], the “calcium channel blocking activity” value (calcium channel) is listed as “high degree of calcium channel blocking activity”.

In the case of COC(=O)C1=C(C)NC(C)=C(C(=O)OC)C1c1ccccc1[N+](=O)[O-] [nifedipine, 4-(2'-nitrophenyl)-2,6-dimethyl-1,4-dihydropyridine-3,5-dicarboxylic acid dimethyl ester], the “calcium channel blocking activity” value (calcium channel) is given as “high degree of calcium channel blocking activity” and the “calcium channel blocking activity” value (calcium channel; listed as 4-(2'-nitrophenyl)-2,6-dimethyl-1,4-dihydropyridine-3,5-dicarboxylic acid dimeth) is given as “shows calcium channel blocking activity”.
